Measured values taken from ChEMBL document CHEMBL4507268 (2021).

How the values were obtained:
[1] = target: T1, Ephrin type-B receptor 2 (Homo sapiens) (UniProt P29323); conditions: Compound concentration 1000.0 nM
T1 sequence (whole entry): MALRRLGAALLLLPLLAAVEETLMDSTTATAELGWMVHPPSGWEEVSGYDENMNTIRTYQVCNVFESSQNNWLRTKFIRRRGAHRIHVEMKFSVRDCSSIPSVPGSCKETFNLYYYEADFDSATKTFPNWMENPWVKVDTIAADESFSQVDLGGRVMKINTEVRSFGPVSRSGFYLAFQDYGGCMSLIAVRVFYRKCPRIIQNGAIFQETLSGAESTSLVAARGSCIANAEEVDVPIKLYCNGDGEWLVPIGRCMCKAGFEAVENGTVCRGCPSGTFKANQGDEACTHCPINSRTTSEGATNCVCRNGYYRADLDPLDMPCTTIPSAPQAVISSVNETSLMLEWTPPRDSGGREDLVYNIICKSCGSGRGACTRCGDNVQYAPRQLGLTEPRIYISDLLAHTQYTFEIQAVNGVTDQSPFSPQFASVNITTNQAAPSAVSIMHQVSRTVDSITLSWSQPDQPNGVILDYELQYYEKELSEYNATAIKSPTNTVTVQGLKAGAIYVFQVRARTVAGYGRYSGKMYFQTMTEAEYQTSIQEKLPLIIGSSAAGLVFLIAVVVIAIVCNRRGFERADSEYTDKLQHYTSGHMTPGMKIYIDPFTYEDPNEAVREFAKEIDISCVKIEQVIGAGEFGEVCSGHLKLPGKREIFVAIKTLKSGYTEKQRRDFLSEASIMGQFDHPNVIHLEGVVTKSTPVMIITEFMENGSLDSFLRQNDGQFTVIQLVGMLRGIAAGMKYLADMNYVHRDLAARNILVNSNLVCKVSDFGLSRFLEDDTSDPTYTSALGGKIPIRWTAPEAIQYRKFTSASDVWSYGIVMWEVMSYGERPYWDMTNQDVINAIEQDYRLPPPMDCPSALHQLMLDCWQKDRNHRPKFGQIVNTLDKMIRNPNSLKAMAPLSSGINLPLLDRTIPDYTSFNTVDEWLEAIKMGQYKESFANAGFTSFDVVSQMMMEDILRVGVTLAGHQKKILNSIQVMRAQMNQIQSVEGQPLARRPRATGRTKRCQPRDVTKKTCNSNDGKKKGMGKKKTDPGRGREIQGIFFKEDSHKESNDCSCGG

[2] = test system: Receptor-type tyrosine-protein kinase FLT3 (Homo sapiens), P36888 [UNDEFINED MUTATION]; conditions: Compound concentration 1000.0 nM
[3] = target: T2, Interleukin-1 receptor-associated kinase 4 (Homo sapiens) (UniProt Q9NWZ3); conditions: Compound concentration 1000.0 nM
T2 sequence (whole entry): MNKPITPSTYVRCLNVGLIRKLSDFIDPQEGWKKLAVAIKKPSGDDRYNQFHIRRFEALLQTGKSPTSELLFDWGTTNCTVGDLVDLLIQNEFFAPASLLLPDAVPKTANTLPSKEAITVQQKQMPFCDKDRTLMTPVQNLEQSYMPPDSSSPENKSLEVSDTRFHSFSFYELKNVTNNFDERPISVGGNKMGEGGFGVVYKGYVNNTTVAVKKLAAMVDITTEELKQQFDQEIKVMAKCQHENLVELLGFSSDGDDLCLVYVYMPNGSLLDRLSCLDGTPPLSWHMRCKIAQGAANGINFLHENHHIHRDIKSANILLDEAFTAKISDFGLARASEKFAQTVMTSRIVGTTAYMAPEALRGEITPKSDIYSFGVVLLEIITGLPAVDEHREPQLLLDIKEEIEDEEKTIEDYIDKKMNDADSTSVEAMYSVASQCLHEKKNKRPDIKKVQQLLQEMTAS

[4] = target: Casein kinase I isoform gamma-1 (Homo sapiens) (UniProt Q9HCP0); conditions: Compound concentration 1000.0 nM
[5] = target: Rho-associated protein kinase 1 (Homo sapiens) (UniProt Q13464); conditions: Compound concentration 1000.0 nM
[6] = target: Tyrosine-protein kinase receptor Tie-1 (Homo sapiens) (UniProt P35590); conditions: Compound concentration 1000.0 nM
[7] = target: Tyrosine-protein kinase Blk (Homo sapiens) (UniProt P51451); conditions: Compound concentration 1000.0 nM
[8] = target: Ribosomal protein S6 kinase alpha-5 (Homo sapiens) (UniProt O75582); conditions: Compound concentration 1000.0 nM
[9] = target: Mitogen-activated protein kinase kinase kinase kinase 1 (Homo sapiens) (UniProt Q92918); conditions: Compound concentration 1000.0 nM
[10] = target: Mu-type opioid receptor (Homo sapiens) (UniProt P35372); conditions: Compound concentration 10.0 uM
[11] = target: Cyclin-dependent kinase 13 (Homo sapiens) (UniProt Q14004); conditions: Compound concentration 1000.0 nM
[12] = target: Serine/threonine-protein kinase LATS1 (Homo sapiens) (UniProt O95835); conditions: Compound concentration 1000.0 nM
[13] = test system: Serine/threonine-protein kinase B-raf (Homo sapiens), P15056 [V600E]; conditions: Compound concentration 1000.0 nM
[14] = target: Serine/threonine-protein kinase PRP4 homolog (Homo sapiens) (UniProt Q13523); conditions: Compound concentration 1000.0 nM
[15] = target: MAP kinase-interacting serine/threonine-protein kinase 1 (Homo sapiens) (UniProt Q9BUB5); conditions: Compound concentration 1000.0 nM
[16] = target: Serine/threonine-protein kinase VRK2 (Homo sapiens) (UniProt Q86Y07); conditions: Compound concentration 1000.0 nM
[17] = target: Death-associated protein kinase 2 (Homo sapiens) (UniProt Q9UIK4); conditions: Compound concentration 1000.0 nM
[18] = test system: Proto-oncogene tyrosine-protein kinase receptor Ret (Homo sapiens), P07949 [M918T]; conditions: Compound concentration 1000.0 nM
[19] = target: Mitogen-activated protein kinase 10 (Homo sapiens) (UniProt P53779); conditions: Compound concentration 1000.0 nM
[20] = target: Phosphorylase b kinase gamma catalytic chain, skeletal muscle/heart isoform (Homo sapiens) (UniProt Q16816); conditions: Compound concentration 1000.0 nM
[21] = target: Myosin light chain kinase, smooth muscle (Homo sapiens) (UniProt Q15746); conditions: Compound concentration 1000.0 nM

Sequence of Serine/threonine-protein kinase B-raf (Homo sapiens), P15056 [V600E] (P15056 whole entry V600E): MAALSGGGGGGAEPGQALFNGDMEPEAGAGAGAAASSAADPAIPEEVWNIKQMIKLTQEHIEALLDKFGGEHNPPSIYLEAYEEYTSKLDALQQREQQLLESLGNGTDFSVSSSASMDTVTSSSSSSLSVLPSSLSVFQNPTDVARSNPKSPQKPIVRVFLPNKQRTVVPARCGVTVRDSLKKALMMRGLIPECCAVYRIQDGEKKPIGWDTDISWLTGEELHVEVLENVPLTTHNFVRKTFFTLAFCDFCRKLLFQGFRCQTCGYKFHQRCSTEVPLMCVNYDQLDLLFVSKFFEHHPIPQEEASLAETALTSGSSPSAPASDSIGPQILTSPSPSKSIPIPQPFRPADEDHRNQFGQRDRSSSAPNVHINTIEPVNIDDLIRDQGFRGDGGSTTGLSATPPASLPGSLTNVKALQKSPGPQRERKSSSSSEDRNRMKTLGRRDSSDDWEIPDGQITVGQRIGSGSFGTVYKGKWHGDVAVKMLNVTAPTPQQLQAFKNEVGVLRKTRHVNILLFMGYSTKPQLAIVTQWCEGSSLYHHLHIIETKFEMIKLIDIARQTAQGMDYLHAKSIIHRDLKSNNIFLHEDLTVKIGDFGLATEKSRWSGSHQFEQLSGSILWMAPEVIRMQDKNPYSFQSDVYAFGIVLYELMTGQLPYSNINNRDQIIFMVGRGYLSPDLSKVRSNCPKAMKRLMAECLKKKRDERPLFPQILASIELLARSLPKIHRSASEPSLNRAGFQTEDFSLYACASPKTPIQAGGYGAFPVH
Sequence of Tyrosine-protein kinase receptor Tie-1 (Homo sapiens) (P35590 whole entry): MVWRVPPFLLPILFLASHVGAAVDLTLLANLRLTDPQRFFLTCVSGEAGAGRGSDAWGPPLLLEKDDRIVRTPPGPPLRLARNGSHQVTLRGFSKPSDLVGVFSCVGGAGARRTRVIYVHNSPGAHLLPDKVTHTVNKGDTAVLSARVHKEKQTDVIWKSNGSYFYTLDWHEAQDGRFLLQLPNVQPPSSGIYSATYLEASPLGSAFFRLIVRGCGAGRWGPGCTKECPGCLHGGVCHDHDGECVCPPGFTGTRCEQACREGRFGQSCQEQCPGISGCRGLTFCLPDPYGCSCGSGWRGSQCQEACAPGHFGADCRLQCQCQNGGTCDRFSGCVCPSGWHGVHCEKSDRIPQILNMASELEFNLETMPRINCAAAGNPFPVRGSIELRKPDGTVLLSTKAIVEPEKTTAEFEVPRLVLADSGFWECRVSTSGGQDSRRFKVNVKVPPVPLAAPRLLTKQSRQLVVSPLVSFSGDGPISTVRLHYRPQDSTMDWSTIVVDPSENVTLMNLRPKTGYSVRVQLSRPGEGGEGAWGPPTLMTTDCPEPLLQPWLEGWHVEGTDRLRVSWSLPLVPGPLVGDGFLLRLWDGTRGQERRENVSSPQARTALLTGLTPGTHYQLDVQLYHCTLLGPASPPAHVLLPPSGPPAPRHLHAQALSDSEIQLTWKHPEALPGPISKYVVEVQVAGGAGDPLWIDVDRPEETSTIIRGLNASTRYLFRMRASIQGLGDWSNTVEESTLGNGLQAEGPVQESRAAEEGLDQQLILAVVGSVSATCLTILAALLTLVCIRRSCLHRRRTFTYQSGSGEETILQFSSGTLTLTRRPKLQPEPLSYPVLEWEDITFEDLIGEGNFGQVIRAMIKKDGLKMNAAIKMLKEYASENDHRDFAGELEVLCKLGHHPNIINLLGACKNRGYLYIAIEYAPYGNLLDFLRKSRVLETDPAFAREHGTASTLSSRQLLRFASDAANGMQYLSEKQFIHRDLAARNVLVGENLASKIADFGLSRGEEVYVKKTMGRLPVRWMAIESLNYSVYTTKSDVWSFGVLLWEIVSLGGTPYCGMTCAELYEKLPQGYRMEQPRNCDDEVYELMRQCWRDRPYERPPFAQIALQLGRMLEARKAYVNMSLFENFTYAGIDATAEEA
Sequence of Phosphorylase b kinase gamma catalytic chain, skeletal muscle/heart isoform (Homo sapiens) (Q16816 whole entry, looked up, canonical isoform): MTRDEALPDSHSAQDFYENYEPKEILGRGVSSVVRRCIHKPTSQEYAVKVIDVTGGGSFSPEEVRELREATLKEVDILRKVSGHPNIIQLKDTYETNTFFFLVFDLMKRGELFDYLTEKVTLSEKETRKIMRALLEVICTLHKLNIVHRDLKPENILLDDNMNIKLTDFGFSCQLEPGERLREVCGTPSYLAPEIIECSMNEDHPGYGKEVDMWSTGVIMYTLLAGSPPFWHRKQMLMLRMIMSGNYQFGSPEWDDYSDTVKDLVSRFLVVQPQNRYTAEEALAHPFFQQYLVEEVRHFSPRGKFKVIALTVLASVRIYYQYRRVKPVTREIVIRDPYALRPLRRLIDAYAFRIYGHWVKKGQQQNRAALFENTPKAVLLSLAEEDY
Sequence of Tyrosine-protein kinase Blk (Homo sapiens) (P51451 2-505 limits assumed): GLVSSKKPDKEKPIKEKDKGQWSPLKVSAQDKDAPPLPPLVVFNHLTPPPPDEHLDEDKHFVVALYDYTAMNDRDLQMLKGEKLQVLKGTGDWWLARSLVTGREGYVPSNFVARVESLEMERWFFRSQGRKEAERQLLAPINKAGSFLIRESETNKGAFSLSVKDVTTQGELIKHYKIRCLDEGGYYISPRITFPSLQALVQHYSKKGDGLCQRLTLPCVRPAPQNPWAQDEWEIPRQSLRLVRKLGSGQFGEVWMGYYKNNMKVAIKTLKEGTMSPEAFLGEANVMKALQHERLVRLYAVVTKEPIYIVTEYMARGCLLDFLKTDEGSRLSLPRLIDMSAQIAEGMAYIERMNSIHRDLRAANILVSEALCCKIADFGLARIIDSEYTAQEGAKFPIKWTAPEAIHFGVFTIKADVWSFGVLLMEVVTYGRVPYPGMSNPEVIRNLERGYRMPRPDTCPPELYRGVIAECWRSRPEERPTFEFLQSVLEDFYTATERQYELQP
Sequence of Mitogen-activated protein kinase kinase kinase kinase 1 (Homo sapiens) (Q92918 whole entry, looked up): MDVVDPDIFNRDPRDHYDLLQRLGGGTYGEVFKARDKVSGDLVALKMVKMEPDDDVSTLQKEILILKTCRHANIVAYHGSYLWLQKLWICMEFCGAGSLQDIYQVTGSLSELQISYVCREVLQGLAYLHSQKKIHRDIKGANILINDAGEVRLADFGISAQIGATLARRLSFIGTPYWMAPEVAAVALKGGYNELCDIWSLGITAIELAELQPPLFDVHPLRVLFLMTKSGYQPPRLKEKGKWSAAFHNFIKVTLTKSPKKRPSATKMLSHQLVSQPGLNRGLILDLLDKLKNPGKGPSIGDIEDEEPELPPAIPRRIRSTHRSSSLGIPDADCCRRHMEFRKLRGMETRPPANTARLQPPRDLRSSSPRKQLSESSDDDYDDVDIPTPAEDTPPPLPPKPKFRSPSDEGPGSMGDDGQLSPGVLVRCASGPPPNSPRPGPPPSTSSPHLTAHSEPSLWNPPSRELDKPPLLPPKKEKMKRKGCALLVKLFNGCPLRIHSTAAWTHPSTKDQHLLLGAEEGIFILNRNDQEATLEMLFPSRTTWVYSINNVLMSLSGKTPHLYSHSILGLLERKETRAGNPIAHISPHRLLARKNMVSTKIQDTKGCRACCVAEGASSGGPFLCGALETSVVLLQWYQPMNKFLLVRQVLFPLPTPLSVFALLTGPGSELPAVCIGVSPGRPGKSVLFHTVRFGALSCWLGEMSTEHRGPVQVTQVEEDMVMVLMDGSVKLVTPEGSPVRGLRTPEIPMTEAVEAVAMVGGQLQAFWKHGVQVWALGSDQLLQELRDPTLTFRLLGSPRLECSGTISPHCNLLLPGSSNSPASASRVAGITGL
Sequence of Serine/threonine-protein kinase VRK2 (Homo sapiens) (Q86Y07 whole entry): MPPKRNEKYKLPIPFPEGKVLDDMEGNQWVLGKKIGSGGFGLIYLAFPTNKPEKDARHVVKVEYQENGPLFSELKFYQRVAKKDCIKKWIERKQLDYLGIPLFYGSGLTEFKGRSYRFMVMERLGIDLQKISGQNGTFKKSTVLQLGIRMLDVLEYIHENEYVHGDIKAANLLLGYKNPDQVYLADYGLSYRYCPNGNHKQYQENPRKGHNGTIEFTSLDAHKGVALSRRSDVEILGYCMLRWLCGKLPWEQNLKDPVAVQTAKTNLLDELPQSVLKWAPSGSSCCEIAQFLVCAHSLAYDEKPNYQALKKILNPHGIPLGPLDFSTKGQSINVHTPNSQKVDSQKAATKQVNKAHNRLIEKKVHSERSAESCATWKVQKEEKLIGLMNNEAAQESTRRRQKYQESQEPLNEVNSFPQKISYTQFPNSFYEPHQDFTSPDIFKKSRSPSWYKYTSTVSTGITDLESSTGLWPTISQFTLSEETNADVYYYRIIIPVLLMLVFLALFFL
Sequence of Ribosomal protein S6 kinase alpha-5 (Homo sapiens) (O75582 whole entry, looked up): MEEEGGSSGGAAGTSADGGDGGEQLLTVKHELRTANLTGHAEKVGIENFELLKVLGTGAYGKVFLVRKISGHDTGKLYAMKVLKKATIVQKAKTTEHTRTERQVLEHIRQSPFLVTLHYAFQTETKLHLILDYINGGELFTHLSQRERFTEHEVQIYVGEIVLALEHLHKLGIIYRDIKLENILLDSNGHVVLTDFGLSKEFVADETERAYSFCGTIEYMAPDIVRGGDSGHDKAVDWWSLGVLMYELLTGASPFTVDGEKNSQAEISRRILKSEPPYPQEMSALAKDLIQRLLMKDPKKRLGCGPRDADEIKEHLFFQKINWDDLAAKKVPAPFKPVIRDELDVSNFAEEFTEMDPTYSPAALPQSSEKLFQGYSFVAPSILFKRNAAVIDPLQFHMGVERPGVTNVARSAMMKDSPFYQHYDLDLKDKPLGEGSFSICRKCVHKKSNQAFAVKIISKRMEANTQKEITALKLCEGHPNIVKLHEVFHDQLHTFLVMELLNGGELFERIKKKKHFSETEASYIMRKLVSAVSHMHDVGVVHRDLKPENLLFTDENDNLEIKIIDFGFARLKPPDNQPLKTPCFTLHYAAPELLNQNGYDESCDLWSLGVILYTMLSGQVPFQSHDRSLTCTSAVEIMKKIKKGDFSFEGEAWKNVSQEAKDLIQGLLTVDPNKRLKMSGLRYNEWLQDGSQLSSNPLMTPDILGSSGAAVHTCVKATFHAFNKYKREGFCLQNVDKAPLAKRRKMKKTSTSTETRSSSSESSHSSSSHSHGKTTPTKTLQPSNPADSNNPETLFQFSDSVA

Cc1nc(C2CCN(C(=O)c3ccc(OC(F)(F)F)cc3N)CC2)c2ncc(N3CCN(C)CC3)cc2n1 [BAY-693]
inactive: residual activity [1] 100% | residual activity [2] 86% | residual activity [3] 90% | residual activity [4] 100% | residual activity [5] 100% | residual activity [6] 100% | residual activity [7] 97% | residual activity [8] 90% | residual activity [9] 96% | inhibition [10] -1.66% | residual activity [11] 88% | residual activity [12] 78% | residual activity [13] 100% | residual activity [14] 96% | residual activity [15] 100% | residual activity [16] 100% | residual activity [17] 100% | residual activity [18] 86% | residual activity [19] 100% | residual activity [20] 100% | residual activity [21] 100%

CN1CCN(c2cnc3c(C4CCN(C(=O)c5ccc(OC(F)(F)F)cc5N)CC4)ncnc3c2)CC1 [BAY-885]
inactive: residual activity [1] 78% | residual activity [2] 93% | residual activity [3] 90% | residual activity [4] 100% | residual activity [5] 100% | residual activity [6] 80% | residual activity [7] 91% | residual activity [8] 96% | residual activity [9] 88% | inhibition [10] 13.2% | residual activity [11] 62% | residual activity [12] 81% | residual activity [13] 100% | residual activity [14] 100% | residual activity [15] 100% | residual activity [16] 100% | residual activity [17] 90% | residual activity [18] 100% | residual activity [19] 100% | residual activity [20] 100% | residual activity [21] 88%
